Experiments:
lambsquarters [1] = experiment: Test Example 4: herbicidal effect by soil treatment (Table 19, symbol O); type: in vivo, lambsquarters (Chenopodium album); conditions: for O: lambsquarters, herbicidal effect rating: AAH 320 g/ha
How it was run: (§1)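 Emulsion of test compound, water-diluted to predetermined amount, sprayed on soil after sowing (seed depth ~1.5 cm, sterilized diluvial soil). Greenhouse, 25–30° C. Effect graded at three weeks post-spray.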

southern crabgrass [2] = experiment: Test Example 4: herbicidal effect by soil treatment (Table 19, symbol F); type: in vivo, southern crabgrass (Digitaria ciliaris); conditions: for F: southern crabgrass, herbicidal effect rating: AAH 320 g/ha
How it was run: as §1

rice flat sedge = experiment: Test Example 3: herbicidal effect by foliage application, Wagner pot (Table 18, symbol E); type: in vivo, rice flat sedge (Cyperus iria); conditions: 320 g/ha
How it was run: (§2)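 Plants were sown in alluvial soil held under 0.1–0.5 cm standing water and grown 14 days in a greenhouse at 25–30 °C. An emulsifiable formulation, water-diluted to the set dose, was then sprayed onto the foliage, and effects were scored three weeks later using previously defined criteria.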

redroot pigweed = experiment: Test Example 4: herbicidal effect by soil treatment (Table 19, symbol N); type: in vivo, redroot pigweed (Amaranthus retroflexus); conditions: for N: redroot pigweed, herbicidal effect rating: AAH 320 g/ha
How it was run: as §1

green foxtail [3] = experiment: Test Example 5: herbicidal effect by foliage application, plastic box (Table 20, symbol G); type: in vivo, green foxtail (Setaria viridis); conditions: foliage application, 320 g/ha, 3 weeks after application
How it was run: (§3)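 Post-emergence foliar test in sterilized diluvial soil. Compound applied as water-diluted emulsion at a predetermined rate to 14-day-old plants; evaluation at three weeks.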

blackgrass [4] = experiment: Test Example 5: herbicidal effect by foliage application, plastic box (Table 20, symbol J); type: in vivo, blackgrass (Alopecurus myosuroides); conditions: foliage application, 320 g/ha, 3 weeks after application
How it was run: as §3

wild oat [5] = experiment: Test Example 5: herbicidal effect by foliage application, plastic box (Table 20, symbol I); type: in vivo, wild oat (Avena fatua); conditions: foliage application, 320 g/ha, 3 weeks after application
How it was run: as §3

windgrass [6] = experiment: Test Example 5: herbicidal effect by foliage application, plastic box (Table 20, symbol L); type: in vivo, windgrass (Apera spica-venti); conditions: foliage application, 320 g/ha, 3 weeks after application
How it was run: as §3

false cleavers = experiment: Test Example 4: herbicidal effect by soil treatment (Table 19, symbol Q); type: in vivo, false cleavers (Galium spurium); conditions: for Q: false cleavers, herbicidal effect rating: AAH 320 g/ha
How it was run: as §1

lambsquarters [7] = experiment: Test Example 5: herbicidal effect by foliage application, plastic box (Table 20, symbol O); type: in vivo, lambsquarters (Chenopodium album); conditions: foliage application, 320 g/ha, 3 weeks after application
How it was run: as §3

barnyard grass [8] = experiment: Test Example 3: herbicidal effect by foliage application, Wagner pot (Table 18, symbol H); type: in vivo, barnyard grass (Echinochloa crus-galli); conditions: 320 g/ha
How it was run: as §2

velvetleaf [9] = experiment: Test Example 5: herbicidal effect by foliage application, plastic box (Table 20, symbol M); type: in vivo, velvetleaf (Abutilon theophrasti); conditions: foliage application, 320 g/ha, 3 weeks after application
How it was run: as §3

velvetleaf [10] = experiment: Test Example 4: herbicidal effect by soil treatment (Table 19, symbol M); type: in vivo, velvetleaf (Abutilon theophrasti); conditions: for M: velvetleaf, herbicidal effect rating: AAH 320 g/ha
How it was run: as §1

blackgrass [11] = experiment: Test Example 4: herbicidal effect by soil treatment (Table 19, symbol J); type: in vivo, blackgrass (Alopecurus myosuroides); conditions: for J: blackgrass, herbicidal effect rating: AAH 320 g/ha
How it was run: as §1

barnyard grass [12] = experiment: Test Example 5: herbicidal effect by foliage application, plastic box (Table 20, symbol H); type: in vivo, barnyard grass (Echinochloa crus-galli); conditions: foliage application, 320 g/ha, 3 weeks after application
How it was run: as §3

windgrass [13] = experiment: Test Example 4: herbicidal effect by soil treatment (Table 19, symbol L); type: in vivo, windgrass (Apera spica-venti); conditions: for L: windgrass, herbicidal effect rating: AAH 320 g/ha
How it was run: as §1

southern crabgrass [14] = experiment: Test Example 5: herbicidal effect by foliage application, plastic box (Table 20, symbol F); type: in vivo, southern crabgrass (Digitaria ciliaris); conditions: foliage application, 320 g/ha, 3 weeks after application
How it was run: as §3

Italian ryegrass [15] = experiment: Test Example 4: herbicidal effect by soil treatment (Table 19, symbol K); type: in vivo, Italian ryegrass (Lolium multiflorum); conditions: for K: Italian ryegrass, herbicidal effect rating: AAH 320 g/ha
How it was run: as §1

barnyard grass [16] = experiment: Test Example 4: herbicidal effect by soil treatment (Table 19, symbol H); type: in vivo, barnyard grass (Echinochloa crus-galli); conditions: for H: barnyard grass, herbicidal effect rating: AAH 320 g/ha
How it was run: as §1

Italian ryegrass [17] = experiment: Test Example 5: herbicidal effect by foliage application, plastic box (Table 20, symbol K); type: in vivo, Italian ryegrass (Lolium multiflorum); conditions: foliage application, 320 g/ha, 3 weeks after application
How it was run: as §3

green foxtail [18] = experiment: Test Example 4: herbicidal effect by soil treatment (Table 19, symbol G); type: in vivo, green foxtail (Setaria viridis); conditions: for G: green foxtail, herbicidal effect rating: AAH 320 g/ha
How it was run: as §1

chickweed = experiment: Test Example 4: herbicidal effect by soil treatment (Table 19, symbol P); type: in vivo, common chickweed (Stellaria media); conditions: for P: chickweed, herbicidal effect rating: AAH 320 g/ha
How it was run: as §1

wild oat [19] = experiment: Test Example 4: herbicidal effect by soil treatment (Table 19, symbol I); type: in vivo, wild oat (Avena fatua); conditions: for I: wild oat, herbicidal effect rating: AAH 320 g/ha
How it was run: as §1

persian speedwell [20] = experiment: Test Example 5: herbicidal effect by foliage application, plastic box (Table 20, symbol R); type: in vivo, Persian speedwell (Veronica persica); conditions: foliage application, 320 g/ha, 3 weeks after application
How it was run: as §3

persian speedwell [21] = experiment: Test Example 4: herbicidal effect by soil treatment (Table 19, symbol R); type: in vivo, Persian speedwell (Veronica persica); conditions: for R: persian speedwell, herbicidal effect rating: AAH 320 g/ha
How it was run: as §1

Chinese sprangletop = experiment: Test Example 3: herbicidal effect by foliage application, Wagner pot (Table 18, symbol D); type: in vivo, chinese sprangletop (Leptochloa chinensis); conditions: 320 g/ha
How it was run: as §2

[22] = amount of applied herbicide 320 g/ha

| Compound | O: lambsquarters, herbicidal effect rating (lambsquarters [1]) | F: southern crabgrass, herbicidal effect rating (southern crabgrass [2]) | herbicidal effect on E (rice flat sedge), rating 0-5 (rice flat sedge) | N: redroot pigweed, herbicidal effect rating (redroot pigweed) | effect on green foxtail (G) (green foxtail [3]) | effect on blackgrass (J) (blackgrass [4]) | effect on wild oat (I) (wild oat [5]) | Q: false cleavers, herbicidal effect rating (false cleavers) | effect on lambsquarters (O) (lambsquarters [7]) | herbicidal effect on H (barnyard grass), rating 0-5 (barnyard grass [8]) | effect on velvetleaf (M) (velvetleaf [9]) | M: velvetleaf, herbicidal effect rating (velvetleaf [10]) | J: blackgrass, herbicidal effect rating (blackgrass [11]) | effect on barnyard grass (H) (barnyard grass [12]) | L: windgrass, herbicidal effect rating (windgrass [13]) | effect on southern crabgrass (F) (southern crabgrass [14]) | K: Italian ryegrass, herbicidal effect rating (Italian ryegrass [15]) | H: barnyard grass, herbicidal effect rating (barnyard grass [16]) | effect on Italian ryegrass (K) (Italian ryegrass [17]) | G: green foxtail, herbicidal effect rating (green foxtail [18]) | other results |
| --- | --- | --- | --- | --- | --- | --- | --- | --- | --- | --- | --- | --- | --- | --- | --- | --- | --- | --- | --- | --- | --- |
| COCCOCOc1c(C)nn(C)c(=O)c1-c1c(-c2ccc(OC(C)C#N)cc2)sc2ccccc12 (racemic) [1-237] | 3 (Herbicidal rate of 40% or more and less than 70%) | 1 (Herbicidal rate of 5% or more and less than 20%) | 4 (Herbicidal rate of 70% or more and less than 90%) | 5 (Herbicidal rate of 90% or more (almost completely withered)) | 5 (Herbicidal rate of 90% or more (almost completely withered)) | 4 (Herbicidal rate of 70% or more and less than 90%) | 3 (Herbicidal rate of 40% or more and less than 70%) | 0 (Herbicidal rate of 5% or less (almost no effect)) | 5 (Herbicidal rate of 90% or more (almost completely withered)) | 5 (Herbicidal rate of 90% or more (almost completely withered)) | 4 (Herbicidal rate of 70% or more and less than 90%) | 1 (Herbicidal rate of 5% or more and less than 20%) | 0 (Herbicidal rate of 5% or less (almost no effect)) | 4 (Herbicidal rate of 70% or more and less than 90%) | 0 (Herbicidal rate of 5% or less (almost no effect)) | 3 (Herbicidal rate of 40% or more and less than 70%) | 3 (Herbicidal rate of 40% or more and less than 70%) | 0 (Herbicidal rate of 5% or less (almost no effect)) | 4 (Herbicidal rate of 70% or more and less than 90%) | 4 (Herbicidal rate of 70% or more and less than 90%) | effect on windgrass (L) (windgrass [6]): 1 (Herbicidal rate of 5% or more and less than 20%); P: chickweed, herbicidal effect rating (chickweed): 3 (Herbicidal rate of 40% or more and less than 70%); I: wild oat, herbicidal effect rating (wild oat [19]): 0 (Herbicidal rate of 5% or less (almost no effect)); effect on persian speedwell (R) (persian speedwell [20]): 5 (Herbicidal rate of 90% or more (almost completely withered)); R: persian speedwell, herbicidal effect rating (persian speedwell [21]): 5 (Herbicidal rate of 90% or more (almost completely withered)); herbicidal effect on D (Chinese sprangletop), rating 0-5 (Chinese sprangletop): 4 (Herbicidal rate of 70% or more and less than 90%) |
| COCCOCc1ccc(-c2sc3ccccc3c2-c2c(O)c(C)nn(C)c2=O)cc1 [1-255] | 5 (Herbicidal rate of 90% or more (almost completely withered)) | 3 (Herbicidal rate of 40% or more and less than 70%) | 5 (Herbicidal rate of 90% or more (almost completely withered)) | 5 (Herbicidal rate of 90% or more (almost completely withered)) | 5 (Herbicidal rate of 90% or more (almost completely withered)) | 4 (Herbicidal rate of 70% or more and less than 90%) | 0 (Herbicidal rate of 5% or less (almost no effect)) | 0 (Herbicidal rate of 5% or less (almost no effect)) | 5 (Herbicidal rate of 90% or more (almost completely withered)) | 5 (Herbicidal rate of 90% or more (almost completely withered)) | 5 (Herbicidal rate of 90% or more (almost completely withered)) | 4 (Herbicidal rate of 70% or more and less than 90%) | 2 (Herbicidal rate of 20% or more and less than 40%) | 5 (Herbicidal rate of 90% or more (almost completely withered)) | 0 (Herbicidal rate of 5% or less (almost no effect)) | 4 (Herbicidal rate of 70% or more and less than 90%) | 4 (Herbicidal rate of 70% or more and less than 90%) | 5 (Herbicidal rate of 90% or more (almost completely withered)) | 5 (Herbicidal rate of 90% or more (almost completely withered)) | 4 (Herbicidal rate of 70% or more and less than 90%) | P: chickweed, herbicidal effect rating (chickweed): 4 (Herbicidal rate of 70% or more and less than 90%); I: wild oat, herbicidal effect rating (wild oat [19]): 0 (Herbicidal rate of 5% or less (almost no effect)); effect on persian speedwell (R) (persian speedwell [20]): 5 (Herbicidal rate of 90% or more (almost completely withered)); R: persian speedwell, herbicidal effect rating (persian speedwell [21]): 5 (Herbicidal rate of 90% or more (almost completely withered)); herbicidal effect on D (Chinese sprangletop), rating 0-5 (Chinese sprangletop): 3 (Herbicidal rate of 40% or more and less than 70%) |
| CCCC(=O)Oc1c(C)nn(C)c(=O)c1-c1c(-c2ccc(OC)c(OC)c2)sc2cc(OC)ccc12 [3-081] | – | – | – | – | – | – | – | – | – | – | – | – | – | – | – | – | – | – | – | – | O: lambsquarters, herbicidal effect grade (lambsquarters [1]; [22]): 0 (Herbicidal rate of 5% or less (almost no effect)); F: southern crabgrass, herbicidal effect grade (southern crabgrass [2]; [22]): 0 (Herbicidal rate of 5% or less (almost no effect)); N: redroot pigweed, herbicidal effect grade (redroot pigweed; [22]): 0 (Herbicidal rate of 5% or less (almost no effect)); Q: false cleavers, herbicidal effect grade (false cleavers; [22]): 0 (Herbicidal rate of 5% or less (almost no effect)); M: velvetleaf, herbicidal effect grade (velvetleaf [10]; [22]): 0 (Herbicidal rate of 5% or less (almost no effect)); J: blackgrass, herbicidal effect grade (blackgrass [11]; [22]): 0 (Herbicidal rate of 5% or less (almost no effect)); L: windgrass, herbicidal effect grade (windgrass [13]; [22]): 0 (Herbicidal rate of 5% or less (almost no effect)); K: Italian ryegrass, herbicidal effect grade (Italian ryegrass [15]; [22]): 0 (Herbicidal rate of 5% or less (almost no effect)); H: barnyard grass, herbicidal effect grade (barnyard grass [16]; [22]): 0 (Herbicidal rate of 5% or less (almost no effect)); G: green foxtail, herbicidal effect grade (green foxtail [18]; [22]): 0 (Herbicidal rate of 5% or less (almost no effect)); P: chickweed, herbicidal effect grade (chickweed; [22]): 0 (Herbicidal rate of 5% or less (almost no effect)); I: wild oat, herbicidal effect grade (wild oat [19]; [22]): 0 (Herbicidal rate of 5% or less (almost no effect)); R: persian speedwell, herbicidal effect grade (persian speedwell [21]; [22]): 2 (Herbicidal rate of 20% or more and less than 40%) |
